Measurements as given in ChEMBL document CHEMBL3885861, “Open TG-GATES”.

Species: Rattus norvegicus
Assay: Open TG-GATES - Regimen: Daily Repeat
Type: toxicity, organism-based, Sprague-Dawley
Design: regimen Daily Repeat, gender Male, age 6 weeks
Conditions: in vivo, po, route gavage; for APTT / Bas / Eos / Fbg / Ht / Lym / MCH / MCHC / MCV / PT / Plat / RBC / Ret / WBC / Hb / Mono / Neu: tissue Blood; for KIDNEY_L / KIDNEY_R / KIDNEY_TOTAL: tissue Kidney; for LIVER: tissue Liver; for ALP / ALT / AST / CRE / Ca / Cl / DBIL / IP / K / LDH / Na / PL / RALB / TBIL / TC / TG / TP / gamma-GTP / BUN: tissue Plasma
[1] = 0 mg/kg, 72 h, dose level Control, time 3 day
[2] = 0 mg/kg, […], dose level Control, time 14 day
[3] = 0 mg/kg, […], dose level Control, time 28 day
[4] = 1 mg/kg, 72 h, dose level Low, time 3 day
[5] = 1 mg/kg, […], dose level Low, time 14 day
[6] = 1 mg/kg, […], dose level Low, time 28 day

## C#C[C@]1(O)CC[C@H]2[C@@H]3CCc4cc(O)ccc4[C@H]3CC[C@@]21C [ETHINYL ESTRADIOL]
[1]
  TERMINAL_BW: 222.5 g
  APTT: 16.4 s
  Bas: 0.2%
  Eos: 1%
  Fbg: 261.6 mg/dL
  Ht: 40.2%
  Lym: 79%
  MCH: 21.4 pg
  MCHC: 33.5%
  MCV: 63.8 fL
  PT: 12.3 s
  Plat: 110.8 x10_4/uL
  RBC: 630.4 x10_4/ul
  Ret: 7.8%
  WBC: 93.3 x10_2/uL
  KIDNEY_L: 0.9 g
  KIDNEY_R: 1 g
  LIVER: 10.3 g
  ALP: 1467.2 IU/L
  ALT: 49.6 IU/L
  AST: 73.2 IU/L
  CRE: 0.2 mg/dL
  Ca: 10.8 mg/dL
  Cl: 106.8 meq/L
  DBIL: 0.018 mg/dL
  IP: 6.5 mg/dL
  K: 4 meq/L
  LDH: 68.4 IU/L
  Na: 143.2 meq/L
  PL: 134.2 mg/dL
  RALB: 2.6 g/dL
  TBIL: 0.034 mg/dL
  TC: 77.8 mg/dL
  TG: 98.2 mg/dL
  TP: 5.5 g/dL
  gamma-GTP: 1.2 IU/L
[2]
  TERMINAL_BW: 321.6 g
  APTT: 16.7 s
  Bas: 0%
  Eos: 1%
  Fbg: 279.4 mg/dL
  Hb: 13.9 g/dL
  Ht: 40.3%
  Lym: 76.4%
  MCH: 20.9 pg
  MCV: 60.2 fL
  Mono: 2.4%
  PT: 11.8 s
  Plat: 120 x10_4/uL
  RBC: 668.4 x10_4/ul
  Ret: 4.5%
  WBC: 90.3 x10_2/uL
  KIDNEY_L: 1.3 g
  KIDNEY_R: 1.3 g
  KIDNEY_TOTAL: 2.6 g
  LIVER: 14.4 g
  ALP: 1586.6 IU/L
  ALT: 44.2 IU/L
  AST: 66.6 IU/L
  BUN: 15.4 mg/dL
  CRE: 0.2 mg/dL
  Ca: 11.3 mg/dL
  Cl: 104.8 meq/L
  DBIL: 0.016 mg/dL
  IP: 6.5 mg/dL
  K: 3.9 meq/L
  LDH: 72.8 IU/L
  Na: 143.2 meq/L
  PL: 143 mg/dL
  TBIL: 0.07 mg/dL
  TC: 74.6 mg/dL
  TG: 104.4 mg/dL
  TP: 6 g/dL
  gamma-GTP: 0.8 IU/L
[3]
  TERMINAL_BW: 423 g
  APTT: 18 s
  Bas: 0.2%
  Eos: 1%
  Fbg: 294.2 mg/dL
  Hb: 15 g/dL
  Ht: 42.5%
  Lym: 79.4%
  MCH: 20.3 pg
  MCHC: 35.3%
  MCV: 57.3 fL
  Mono: 2.2%
  Plat: 88.3 x10_4/uL
  RBC: 742.6 x10_4/ul
  Ret: 2.6%
  WBC: 108.2 x10_2/uL
  KIDNEY_L: 1.4 g
  KIDNEY_R: 1.4 g
  KIDNEY_TOTAL: 2.8 g
  LIVER: 18.3 g
  ALP: 1125 IU/L
  ALT: 39.4 IU/L
  AST: 58 IU/L
  BUN: 16 mg/dL
  CRE: 0.2 mg/dL
  Cl: 104.8 meq/L
  DBIL: 0.012 mg/dL
  IP: 6.1 mg/dL
  K: 3.8 meq/L
  LDH: 59.2 IU/L
  Na: 143.2 meq/L
  PL: 155.8 mg/dL
  RALB: 2.9 g/dL
  TBIL: 0.066 mg/dL
  TC: 80.4 mg/dL
  TG: 137.2 mg/dL
  TP: 6.3 g/dL
  gamma-GTP: 1 IU/L
[4]
  TERMINAL_BW: 204.6 g
  APTT: 17 s
  Bas: 0%
  Eos: 1%
  Fbg: 309.6 mg/dL
  Ht: 39.1%
  Lym: 82.4%
  MCHC: 34.2%
  MCV: 62.3 fL
  Mono: 3.6%
  Neu: 12.6%
  PT: 13.1 s
  Plat: 107.6 x10_4/uL
  RBC: 627.4 x10_4/ul
  Ret: 5.1%
  WBC: 72 x10_2/uL
  KIDNEY_L: 1 g
  KIDNEY_R: 1 g
  KIDNEY_TOTAL: 2 g
  LIVER: 11.7 g
  ALP: 2115.4 IU/L
  ALT: 41.2 IU/L
  AST: 84.2 IU/L
  BUN: 9.4 mg/dL
  CRE: 0.2 mg/dL
  Ca: 10.6 mg/dL
  Cl: 107.4 meq/L
  DBIL: 0.038 mg/dL
  IP: 7.4 mg/dL
  K: 4 meq/L
  LDH: 95.4 IU/L
  Na: 144 meq/L
  PL: 82.6 mg/dL
  RALB: 2.6 g/dL
  TBIL: 0.07 mg/dL
  TC: 29.4 mg/dL
  TG: 73.6 mg/dL
  TP: 5.6 g/dL
  gamma-GTP: 1.2 IU/L
[5]
  TERMINAL_BW: 243.2 g
  APTT: 23 s
  Bas: 0%
  Eos: 1%
  Fbg: 328.6 mg/dL
  Hb: 13.9 g/dL
  Ht: 38.9%
  Lym: 77.6%
  MCH: 20.1 pg
  MCHC: 35.6%
  MCV: 56.3 fL
  PT: 13.5 s
  Plat: 120.8 x10_4/uL
  RBC: 690.2 x10_4/ul
  Ret: 1.8%
  WBC: 80.9 x10_2/uL
  KIDNEY_L: 1 g
  KIDNEY_R: 1 g
  KIDNEY_TOTAL: 2 g
  LIVER: 13.6 g
  ALP: 1995.4 IU/L
  ALT: 41 IU/L
  AST: 53.8 IU/L
  BUN: 13.2 mg/dL
  CRE: 0.2 mg/dL
  Cl: 105.8 meq/L
  DBIL: 0.03 mg/dL
  IP: 5.7 mg/dL
  K: 3.9 meq/L
  LDH: 60.8 IU/L
  Na: 143.8 meq/L
  PL: 105.4 mg/dL
  RALB: 2.9 g/dL
  TBIL: 0.084 mg/dL
  TC: 33.4 mg/dL
  TG: 68 mg/dL
  TP: 6.5 g/dL
[6]
  TERMINAL_BW: 264.8 g
  APTT: 27.7 s
  Bas: 0%
  Eos: 1%
  Fbg: 328.6 mg/dL
  Hb: 14.3 g/dL
  Ht: 39%
  Lym: 77.6%
  MCH: 19.9 pg
  MCHC: 36.7%
  MCV: 54.2 fL
  Mono: 2.6%
  Neu: 18.8%
  PT: 13.6 s
  Plat: 113.5 x10_4/uL
  RBC: 720.8 x10_4/ul
  Ret: 2.4%
  WBC: 82.1 x10_2/uL
  KIDNEY_L: 1 g
  KIDNEY_R: 1 g
  KIDNEY_TOTAL: 2 g
  LIVER: 14.4 g
  ALP: 1546.2 IU/L
  ALT: 37.8 IU/L
  AST: 50.6 IU/L
  BUN: 14 mg/dL
  CRE: 0.3 mg/dL
  Ca: 10.8 mg/dL
  Cl: 105.4 meq/L
  DBIL: 0.036 mg/dL
  IP: 5.3 mg/dL
  K: 3.6 meq/L
  LDH: 38 IU/L
  Na: 144 meq/L
  PL: 147 mg/dL
  RALB: 3 g/dL
